Some test systems named below: ALL-PO; SUP-B15; JURKAT.
What all share (assay): selective drug sensitivity score (sDSS, relative to normal bone marrow) (sDSS (score)); higher = more potent and effective on the cell line relative to normal bone marrow cells
Settings in all cases: 72 h
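Further: ALL cell lines in 384-well plates, five doses spanning 10,000-fold, each plate scaled between vehicle and 100 µmol/L benzalkonium chloride controls, sDSS an adapted area-under-curve metric.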

Take `CNS(=O)(=O)Nc1nccc(Cc2c(C)c3ccc(Oc4ncccn4)cc3oc2=O)c1F` (top concentration 1000 nM): the results for the “selective drug sensitivity score” value in the assay with ALL-PO, in the assay on SUP-B15 and in the assay with JURKAT were -1.18, 10.1 and 0.92, respectively.

Take `C[C@H]1Oc2cc(cnc2N)-c2c(nn(C)c2C#N)CN(C)C(=O)c2ccc(F)cc21` (top concentration 1000 nM): the “selective drug sensitivity score” value in the assay with ALL-PO, with SUP-B15 and in the assay on JURKAT was -0.72 in each case.

In the case of `CCc1cncnc1N1CCN(Cc2nc3cc(C(F)(F)F)ccc3[nH]2)CC1` (top concentration 10000 nM), the “selective drug sensitivity score” value in the assay on ALL-PO is 3.86; with SUP-B15, 3.46; in the assay on JURKAT, 7.36.

For the compound `CN(C)CC#Cc1ccc(OCCCc2sc(N3CCc4cccc(C(=O)Nc5nc6ccccc6s5)c4C3)nc2C(=O)O)c(F)c1` (top concentration 10000 nM), the “selective drug sensitivity score” value in the assay on ALL-PO is 0.46; in the assay on SUP-B15 it was 13.6; with JURKAT, 10.9.

Take `O=C(NC[C@H](O)CN1CCc2ccccc2C1)c1cc(NC2COC2)ncn1` (top concentration 10000 nM): the “selective drug sensitivity score” value is -0.06 in the assay with ALL-PO, 1.54 with SUP-B15 and -0.06 in the assay on JURKAT.

`O=C1Cc2cc(C(=O)NC3C[C@H]4CC[C@@H](C3)N4S(=O)(=O)CC3CCN(CCCC(F)(F)F)CC3)c(Cl)cc2N1` (stereo partly drawn) (top concentration 10000 nM): the “selective drug sensitivity score” value in the assay on ALL-PO, in the assay with SUP-B15 and in the assay with JURKAT was 0 in each case.

With `CC/C(=C(\c1ccc(O)cc1)c1ccc(OCCN(C)C)cc1)c1ccccc1` [4-hydroxytamoxifen] (top concentration 10000 nM), the “selective drug sensitivity score” value in the assay with ALL-PO is 3.12; with SUP-B15, 0.92; in the assay on JURKAT, 2.02.

On to `COCC1(CO)C(=O)C2CCN1CC2` (stereo not drawn) [APR-246] (top concentration 10000 nM), for which the “selective drug sensitivity score” value in the assay with ALL-PO was -1.16; in the assay on SUP-B15 it was 0.44; in the assay on JURKAT, -1.16.

As for `Cc1sc2c(c1C)C(c1ccc(Cl)cc1)=N[C@@H](CC(=O)Nc1ccc(OCCOCCOCCOCCNc3cccc4c3C(=O)N(C3CCC(=O)NC3=O)C4=O)cc1)c1nnc(C)n1-2` (stereo partly drawn) [ARV-825] (top concentration 300 nM), the “selective drug sensitivity score” value in the assay with ALL-PO is 2.34; in the assay with SUP-B15, 6.14; with JURKAT, -13.2.

Consider `COc1cc(OC2CCN(C)CC2)ccc1Nc1ncc2c(n1)n(C1CCCC1)c(=O)n2C` [AZ3146] (top concentration 10000 nM), for which the figures for the “selective drug sensitivity score” value with ALL-PO, with SUP-B15 and in the assay on JURKAT were 3.44, 1.34 and 0.24, respectively.

As to `CN(C)CCCOc1ccc(-c2ccc3ncc4c(c3c2)n(C2CCOCC2)c(=O)n4C)cn1` [AZD0156] (top concentration 1000 nM), the “selective drug sensitivity score” value in the assay with ALL-PO is 2.24; with SUP-B15, 1.14; in the assay on JURKAT, -0.06.

As for `N#Cc1ccc2[nH]c(O)c(-c3ccc(CN4CCOCC4)cn3)c2c1` [AZD-1080] (top concentration 10000 nM), the figures for the “selective drug sensitivity score” value in the assay on ALL-PO, with SUP-B15 and in the assay on JURKAT were 2.18, 5.08 and -0.02, respectively.

As to `CN(C)C/C=C/C(=O)Nc1cc2c(Nc3ccc(F)c(Cl)c3)ncnc2cc1O[C@H]1CCOC1` [Afatinib] (top concentration 1000 nM), the figures for the “selective drug sensitivity score” value in the assay on ALL-PO, in the assay with SUP-B15 and in the assay with JURKAT were -0.64, -0.84 and 0.16, respectively.

Take `O=C(Nc1ccc(OC(F)(F)Cl)cc1)c1cnc(N2CC[C@@H](O)C2)c(-c2cc[nH]n2)c1` [Asciminib] (top concentration 1000 nM): the “selective drug sensitivity score” value in the assay on ALL-PO was -0.28; in the assay on SUP-B15, 26.2; in the assay on JURKAT, -0.58.

Turning to `CC[C@@H]1C(=O)N(C)c2cnc(Nc3ccc(C(=O)NC4CCN(C)CC4)cc3OC)nc2N1C1CCCC1` [BI-2536] (top concentration 1000 nM), the “selective drug sensitivity score” value in the assay on ALL-PO is 15.9; in the assay with SUP-B15, 22.9; with JURKAT it was 19.2.

As for `Cc1ccc(NC(=O)c2ccc(CN3CC[C@H](N(C)C)C3)c(C(F)(F)F)c2)cc1Nc1nccc(-c2cncnc2)n1` [Bafetinib] (top concentration 1000 nM), the “selective drug sensitivity score” value is 0 with ALL-PO, 21.9 with SUP-B15 and 0 in the assay on JURKAT.

For the compound `CC[C@H](NC(=O)[C@H](C)NC)C(=O)N1C[C@@H](O)C[C@H]1Cc1c(-c2[nH]c3cc(F)ccc3c2C[C@@H]2C[C@H](O)CN2C(=O)[C@H](CC)NC(=O)[C@H](C)NC)[nH]c2cc(F)ccc12` [Birinapant] (top concentration 1000 nM), the figures for the “selective drug sensitivity score” value with ALL-PO, with SUP-B15 and in the assay on JURKAT were -1.9, -3.7 and -4.9, respectively.

Regarding `COc1cc2nccc(Oc3ccc(NC(=O)C4(C(=O)Nc5ccc(F)cc5)CC4)cc3)c2cc1OC` [Cabozantinib] (top concentration 1000 nM), the “selective drug sensitivity score” value in the assay with ALL-PO was 10.4; in the assay with SUP-B15, 13.5; with JURKAT it was -3.62.

Consider `CCCCCOC(=O)Nc1nc(=O)n([C@@H]2O[C@H](C)[C@@H](O)[C@H]2O)cc1F` [Capecitabine] (top concentration 10000 nM), for which the “selective drug sensitivity score” value in the assay with ALL-PO, in the assay on SUP-B15 and with JURKAT was -0.06 throughout.

As to `Nc1nc(Cl)nc2c1ncn2[C@H]1C[C@H](O)[C@@H](CO)O1` [Cladribine] (top concentration 1000 nM), the “selective drug sensitivity score” value in the assay on ALL-PO was 8.66; with SUP-B15, 9.36; in the assay with JURKAT, -10.7.

Consider `CCN(CC)CCOc1ccc(/C(=C(/Cl)c2ccccc2)c2ccccc2)cc1` [Clomifene] (top concentration 10000 nM), for which the “selective drug sensitivity score” value in the assay with ALL-PO was 0.62; with SUP-B15, 0.12; in the assay on JURKAT, -1.28.

As for `CO[C@@H](C(=O)N1Cc2[nH]nc(NC(=O)c3ccc(N4CCN(C)CC4)cc3)c2C1)c1ccccc1` [Danusertib] (top concentration 10000 nM), the results for the “selective drug sensitivity score” value in the assay on ALL-PO, in the assay on SUP-B15 and in the assay with JURKAT were 13, 18.6 and -0.96, respectively.

With `CC[C@@](C)(Nc1ccnc(-c2c[nH]c3ncccc23)n1)C(=O)NCC(F)(F)F` [Decernotinib] (top concentration 10000 nM), the “selective drug sensitivity score” value with ALL-PO, in the assay with SUP-B15 and with JURKAT was -3.94 throughout.

For the compound `CN1CCN(c2ccc3nc(-c4c(N)c5c(F)cccc5[nH]c4=O)[nH]c3c2)CC1` [Dovitinib] (top concentration 10000 nM), the “selective drug sensitivity score” value with ALL-PO was 6.86; with SUP-B15, 0.26; in the assay with JURKAT, -0.14.

On to `CC(C)(O)CNc1nc(Nc2ccnc(C(F)(F)F)c2)nc(-c2cccc(C(F)(F)F)n2)n1` [Enasidenib] (top concentration 10000 nM), for which the “selective drug sensitivity score” value in the assay with ALL-PO is 2.7; with SUP-B15 it was -0.3; in the assay on JURKAT it was -0.7.

Turning to `CN1CCN(c2ccc(C(=O)Nc3n[nH]c4ccc(Cc5cc(F)cc(F)c5)cc34)c(NC3CCOCC3)c2)CC1` [Entrectinib] (top concentration 1000 nM), the “selective drug sensitivity score” value with ALL-PO is 3.3; in the assay on SUP-B15 it was -0.7; in the assay with JURKAT, -1.2.

Regarding `CNC(=O)c1ccc(N2C(=S)N(c3ccc(C#N)c(C(F)(F)F)c3)C(=O)C2(C)C)cc1F` [Enzalutamide] (top concentration 10000 nM), the entries for the “selective drug sensitivity score” value with ALL-PO, in the assay on SUP-B15 and in the assay on JURKAT were 0.88, 3.38 and 1.18, respectively.

With `Cn1cc(C2=C(c3cn(C4CCN(Cc5ccccn5)CC4)c4ccccc34)C(=O)NC2=O)c2ccccc21` [Enzastaurin] (top concentration 10000 nM), the “selective drug sensitivity score” value in the assay with ALL-PO is 5.96; with SUP-B15, 4.86; in the assay with JURKAT, 4.26.

Take `NS(=O)(=O)NCCNc1nonc1/C(=N/O)Nc1ccc(F)c(Br)c1` [Epacadostat] (top concentration 10000 nM): the “selective drug sensitivity score” value in the assay on ALL-PO was -0.26; with SUP-B15, -0.26; with JURKAT, -0.16.

For the compound `CCOc1ccccc1-n1c(C(C)N2CCN(C(=O)COc3ccc(Cl)cc3)CC2)nc2ccccc2c1=O` (stereo not drawn) [Erastin] (top concentration 10000 nM), the “selective drug sensitivity score” value in the assay on ALL-PO is 4.54; with SUP-B15 it was 14; in the assay with JURKAT it was -0.16.

For `COc1cc(OC)cc(N(CCNC(C)C)c2ccc3ncc(-c4cnn(C)c4)nc3c2)c1` [Erdafitinib] (top concentration 1000 nM), the “selective drug sensitivity score” value with ALL-PO is -0.46; with SUP-B15 it was -0.46; with JURKAT it was -0.56.

`CC(C)(C)NC(=O)[C@H]1CC[C@H]2[C@@H]3CC[C@H]4NC(=O)C=C[C@]4(C)[C@H]3CC[C@]12C` [Finasteride] (top concentration 10000 nM): the “selective drug sensitivity score” value in the assay on ALL-PO was 0.48; in the assay with SUP-B15, 3.08; with JURKAT, -0.52.

Regarding `O=c1[nH]c(=O)n([C@H]2C[C@H](O)[C@@H](CO)O2)cc1F` [Floxuridine] (top concentration 10000 nM), the figures for the “selective drug sensitivity score” value in the assay on ALL-PO, with SUP-B15 and in the assay on JURKAT were 36.5, 42.4 and 18.7, respectively.

On to `CNc1nc(Nc2cn(C(C)(C)C#N)nc2C)ncc1C(F)(F)F` [GNE-0877] (top concentration 1000 nM), for which the “selective drug sensitivity score” value with ALL-PO, with SUP-B15 and in the assay with JURKAT was 0 throughout.

On to `CCCc1cc(C)[nH]c(=O)c1CNC(=O)c1cc(-c2ccnc(N3CCN(C)CC3)c2)cc2c1cnn2C(C)C` [GSK343] (top concentration 1000 nM), for which the “selective drug sensitivity score” value in the assay on ALL-PO was found to be 0.1; with SUP-B15, 0; in the assay with JURKAT, 0.

Consider `O=C(O)c1ccc(O)c2ncccc12` [IOX-1] (top concentration 100000 nM), for which the results for the “selective drug sensitivity score” value in the assay on ALL-PO, in the assay with SUP-B15 and with JURKAT were 3.74, 4.24 and 3.54, respectively.

(Values after the supplement of paper PMC8967900.)
